Measurements taken from ChEMBL document CHEMBL3822367, “Use of Photosensitizers in Semisolid Formulations for Microbial Photodynamic Inactivation” (2016).

System: Mycobacterium tuberculosis variant bovis BCG
Assay: Antimycobacterial activity against Mycobacterium bovis BCG Pasteur ATCC 35734 assessed as cell survival at 5 uM after 1 hr followed by irradiation with light at 60 to 100 J/cm'2
Assay type: functional, organism-based

VERTEPORFIN showed a Survival of 26%.
